Reference: patent publication US20030194450A1, “Method of producing a preparation containing active substances from cannabis” (priority 2002, published 2003)
Values joined by “and” are separate entries in the source; they are usually repeats but may differ in a detail not shown here. Equal values may be shown once.

Test: Δ-9-tetrahydrocannabinol content in milk of a dairy cow fed hemp blossoms
Format: in vivo
Conditions: dairy cow fed 14 kg/day feed in two rations, 50 g ensiled hemp blossoms per ration; milk samples one week after initiation of feeding plan
Description: A dairy cow with a medium milk production was fed over a time period of two weeks with a daily feed amount of 14 kg/day, divided up into two rations, 50 g of hemp blossoms having been added to each ration. The hemp blossoms used consisted of the upper part of pistillate hemp plants which were harvested in a way analogous to that employed for harvesting corn. The material was processed by a corn chaff cutter and underwent an ensilage step. The rest of the fodder was normal cattle feed (Total Mix Ratio, TMR) as is commonly provided in agriculture to cows for milk production. The content of Δ-9-tetrahydrocannabinol active substance in milk samples obtained one week after initiation of the feeding plan was determined to be 0.15 mg/l and 0.63 mg/l. The measurements were carried out in an accredited laboratory (Swiss testing STS 017, EN 45001, GMP).

In the case of `CCCCCc1cc(O)c2c(c1)OC(C)(C)[C@@H]1CCC(C)=C[C@@H]21` [Δ-9-tetrahydrocannabinol], the “content of Δ-9-tetrahydrocannabinol active substance in milk samples” value was 0.15 mg/L and 0.63 mg/L.
